This note sets out measurements from patent publication US8791108B2, “Inhibitors of human immunodeficiency virus replication” (priority 2011, dated 2014).

The first assay concerns recombinant NL-Rluc virus. Briefly: Inhibition of HIV replication (NL-RLuc luciferase reporter virus, MT-2 cells). The class given is cell-based. The conditions noted are these: Human immunodeficiency virus 1, MT2, 120 h, read-out: Activity. Background: A reporter such as luciferase makes a cellular process visible.
For `Cc1nc2cc(C(=O)N3CCC(c4ccc(F)cc4)CC3)nn2c(-c2cc(F)c3c(c2C)CCCO3)c1[C@H](OC(C)(C)C)C(=O)O` (atropisomer, axis not shown) [Example 138, (S)-2-(tert-Butoxy)-2-((S)-7-(8-fluoro-5-methylchroman-6-yl)-2-(4-(4-fluorophenyl)piperidine-1-carbonyl)-5-methylpyrazolo[1,5-a]pyrimidin-6-yl)acetic acid], the EC50 is below 0.1 µM.
In the case of `Cc1cc(CNC(=O)c2cc3nc(C)c(C(OC(C)(C)C)C(=O)O)c(-c4cc(F)c5c(c4C)CCCO5)n3n2)ccc1F` (stereo in doubt) [Example 3, (2S)-2-(tert-Butoxy)-2-(2-((4-fluoro-3-methylbenzyl)carbamoyl)-7-(8-fluoro-5-methylchroman-6-yl)-5-methylpyrazolo[1,5-a]pyrimidin-6-yl)acetic acid], the EC50 is below 0.1 µM.
`Cc1nc2cc(C(=O)NCc3ccc(F)cc3-n3ncnc3C)nn2c(-c2cc(F)c3c(c2C)CCCO3)c1C(OC(C)(C)C)C(=O)O` (stereo in doubt) [Example 9, (2S)-2-(tert-butoxy)-2-(2-((4-fluoro-2-(5-methyl-1H-1,2,4-triazol-1-yl)benzyl)carbamoyl)-7-(8-fluoro-5-methylchroman-6-yl)-5-methylpyrazolo[1,5-a]pyrimidin-6-yl)acetic acid]: the EC50 is 0.1 to 1 µM.
Still for that read-out and setting: under `Cc1nc2cc(C(=O)NCc3ccc(F)cc3)nn2c(-c2cc(F)c3c(c2C)CCCO3)c1[C@H](OC(C)(C)C)C(=O)O` [Example 1, (2S)-2-(tert-butoxy)-2-(7-(8-fluoro-5-methylchroman-6-yl)-2-((4-fluorobenzyl)carbamoyl)-5-methylpyrazolo[1,5-a]pyrimidin-6-yl)acetic acid] stands below 0.1 µM; under `Cc1nc2cc(C(=O)NCC3CCN(C(=O)C(C)C)CC3)nn2c(-c2cc(F)c3c(c2C)CCCO3)c1[C@H](OC(C)(C)C)C(=O)O` [Example 2, (2S)-2-(tert-Butoxy)-2-(7-(8-fluoro-5-methylchroman-6-yl)-2-(((1-isobutyrylpiperidin-4-yl)methyl)carbamoyl)-5-methylpyrazolo[1,5-a]pyrimidin-6-yl)acetic acid], above 1 µM; under `Cc1nc2cc(C(=O)NCc3ccccc3)nn2c(-c2cc(F)c3c(c2C)CCCO3)c1[C@H](OC(C)(C)C)C(=O)O` [Example 4, (2S)-2-(2-(Benzylcarbamoyl)-7-(8-fluoro-5-methylchroman-6-yl)-5-methylpyrazolo[1,5-a]pyrimidin-6-yl)-2-(tert-butoxy)acetic acid], below 0.1 µM.
The same measure, in the same setting: the result for `Cc1ccc(CNC(=O)c2cc3nc(C)c([C@H](OC(C)(C)C)C(=O)O)c(-c4cc(F)c5c(c4C)CCCO5)n3n2)cc1` [Example 5, (2S)-2-(tert-butoxy)-2-(7-(8-fluoro-5-methylchroman-6-yl)-5-methyl-2-((4-methylbenzyl)carbamoyl)pyrazolo[1,5-a]pyrimidin-6-yl)acetic acid] reads below 0.1 µM; that for `Cc1cccc(CNC(=O)c2cc3nc(C)c([C@H](OC(C)(C)C)C(=O)O)c(-c4cc(F)c5c(c4C)CCCO5)n3n2)c1` [Example 6], below 0.1 µM; that for `Cc1ccccc1CNC(=O)c1cc2nc(C)c([C@H](OC(C)(C)C)C(=O)O)c(-c3cc(F)c4c(c3C)CCCO4)n2n1` [Example 7, (2S)-2-(tert-butoxy)-2-(7-(8-fluoro-5-methylchroman-6-yl)-5-methyl-2-((2-methylbenzyl)carbamoyl)pyrazolo[1,5-a]pyrimidin-6-yl)acetic acid], below 0.1 µM.
Consider `Cc1nc2cc(C(=O)N(C)Cc3ccc(F)cc3)nn2c(-c2cc(F)c3c(c2C)CCCO3)c1[C@H](OC(C)(C)C)C(=O)O` [Example 8, (2S)-2-(tert-butoxy)-2-(7-(8-fluoro-5-methylchroman-6-yl)-2-((4-fluorobenzyl)(methyl)carbamoyl)-5-methylpyrazolo[1,5-a]pyrimidin-6-yl)acetic acid], for which the EC50 is below 0.1 µM.
On the same count and under the same terms, the result for `Cc1nc2cc(C(=O)NCc3ccc(F)cc3-n3nncc3C)nn2c(-c2cc(F)c3c(c2C)CCCO3)c1[C@H](OC(C)(C)C)C(=O)O` [Example 10, (2S)-2-(tert-butoxy)-2-(2-((4-fluoro-2-(5-methyl-1H-1,2,3-triazol-1-yl)benzyl)carbamoyl)-7-(8-fluoro-5-methylchroman-6-yl)-5-methylpyrazolo[1,5-a]pyrimidin-6-yl)acetic acid] reads 0.1 to 1 µM.
Same read-out and setting: the result for `Cc1nc2cc(C(=O)NCc3ccc(F)cc3-n3cncn3)nn2c(-c2cc(F)c3c(c2C)CCCO3)c1[C@H](OC(C)(C)C)C(=O)O` [Example 11, (2S)-2-(tert-butoxy)-2-(2-((4-fluoro-2-(1H-1,2,4-triazol-1-yl)benzyl)carbamoyl)-7-(8-fluoro-5-methylchroman-6-yl)-5-methylpyrazolo[1,5-a]pyrimidin-6-yl)acetic acid] reads 0.1 to 1 µM; that for `Cc1nc2cc(C(=O)NCc3ccc(F)cc3N3CCCC3=O)nn2c(-c2cc(F)c3c(c2C)CCCO3)c1[C@H](OC(C)(C)C)C(=O)O` [Example 12, (2S)-2-(tert-butoxy)-2-(2-((4-fluoro-2-(2-oxopyrrolidin-1-yl)benzyl)carbamoyl)-7-(8-fluoro-5-methylchroman-6-yl)-5-methylpyrazolo[1,5-a]pyrimidin-6-yl)acetic acid], above 1 µM; that for `Cc1nc2cc(C(=O)NS(=O)(=O)c3ccccc3)nn2c(-c2cc(F)c3c(c2C)CCCO3)c1[C@H](OC(C)(C)C)C(=O)O` [Example 13, (2S)-2-(tert-butoxy)-2-(7-(8-fluoro-5-methylchroman-6-yl)-5-methyl-2-((phenylsulfonyl)carbamoyl)pyrazolo[1,5-a]pyrimidin-6-yl)acetic acid], above 1 µM.
Still for that read-out and setting: the result for `Cc1nc2cc(C(=O)NS(=O)(=O)Cc3ccccc3)nn2c(-c2cc(F)c3c(c2C)CCCO3)c1[C@H](OC(C)(C)C)C(=O)O` [Example 14, (2S)-2-(2-((benzylsulfonyl)carbamoyl)-7-(8-fluoro-5-methylchroman-6-yl)-5-methylpyrazolo[1,5-a]pyrimidin-6-yl)-2-(tert-butoxy)acetic acid] reads above 1 µM; that for `Cc1ccc(NC(=O)c2cc3nc(C)c([C@H](OC(C)(C)C)C(=O)O)c(-c4cc(F)c5c(c4C)CCCO5)n3n2)cc1` [Example 15, (2S)-2-(tert-butoxy)-2-(7-(8-fluoro-5-methylchroman-6-yl)-5-methyl-2-(p-tolylcarbamoyl)pyrazolo[1,5-a]pyrimidin-6-yl)acetic acid], below 0.1 µM.
On to `Cc1nc2cc(C(=O)NCC3CCCCC3)nn2c(-c2cc(F)c3c(c2C)CCCO3)c1[C@H](OC(C)(C)C)C(=O)O` [Example 16, (2S)-2-(tert-butoxy)-2-(2-((cyclohexylmethyl)carbamoyl)-7-(8-fluoro-5-methylchroman-6-yl)-5-methylpyrazolo[1,5-a]pyrimidin-6-yl)acetic acid], for which the EC50 is below 0.1 µM.
Still for that read-out and setting: the result for `CON(Cc1ccc(F)cc1)C(=O)c1cc2nc(C)c([C@H](OC(C)(C)C)C(=O)O)c(-c3cc(F)c4c(c3C)CCCO4)n2n1` [Example 17, (2S)-2-(tert-butoxy)-2-(7-(8-fluoro-5-methylchroman-6-yl)-2-((4-fluorobenzyl)(methoxy)carbamoyl)-5-methylpyrazolo[1,5-a]pyrimidin-6-yl)acetic acid] reads below 0.1 µM; that for `Cc1nc2cc(C(=O)NCc3ccc(F)cc3-c3ncnn3C)nn2c(-c2cc(F)c3c(c2C)CCCO3)c1[C@H](OC(C)(C)C)C(=O)O` [Example 18, (2S)-2-(tert-butoxy)-2-(2-((4-fluoro-2-(1-methyl-1H-1,2,4-triazol-5-yl)benzyl)carbamoyl)-7-(8-fluoro-5-methylchroman-6-yl)-5-methylpyrazolo[1,5-a]pyrimidin-6-yl)acetic acid], 0.1 to 1 µM.
Same read-out and setting: under `Cc1ccccc1CN(C)C(=O)c1cc2nc(C)c([C@H](OC(C)(C)C)C(=O)O)c(-c3cc(F)c4c(c3C)CCCO4)n2n1` [Example 19, (2S)-2-(tert-butoxy)-2-(7-(8-fluoro-5-methylchroman-6-yl)-5-methyl-2-(methyl(2-methylbenzyl)carbamoyl)pyrazolo[1,5-a]pyrimidin-6-yl)acetic acid] stands below 0.1 µM; under `Cc1cccc(CN(C)C(=O)c2cc3nc(C)c([C@H](OC(C)(C)C)C(=O)O)c(-c4cc(F)c5c(c4C)CCCO5)n3n2)c1` [Example 20, (2S)-2-(tert-butoxy)-2-(7-(8-fluoro-5-methylchroman-6-yl)-5-methyl-2-(methyl(3-methylbenzyl)carbamoyl)pyrazolo[1,5-a]pyrimidin-6-yl)acetic acid], below 0.1 µM; under `CCc1ccc(CN(C)C(=O)c2cc3nc(C)c([C@H](OC(C)(C)C)C(=O)O)c(-c4cc(F)c5c(c4C)CCCO5)n3n2)cc1` [Example 21, (2S)-2-(tert-butoxy)-2-(2-((4-ethylbenzyl)(methyl)carbamoyl)-7-(8-fluoro-5-methylchroman-6-yl)-5-methylpyrazolo[1,5-a]pyrimidin-6-yl)acetic acid], below 0.1 µM.
Same read-out and setting: under `Cc1nc2cc(C(=O)N(C)Cc3ccccc3F)nn2c(-c2cc(F)c3c(c2C)CCCO3)c1[C@H](OC(C)(C)C)C(=O)O` [Example 22, (2S)-2-(tert-butoxy)-2-(7-(8-fluoro-5-methylchroman-6-yl)-2-((2-fluorobenzyl)(methyl)carbamoyl)-5-methylpyrazolo[1,5-a]pyrimidin-6-yl)acetic acid] stands below 0.1 µM; under `Cc1nc2cc(C(=O)N(C)Cc3cccc(F)c3)nn2c(-c2cc(F)c3c(c2C)CCCO3)c1[C@H](OC(C)(C)C)C(=O)O` [Example 23], below 0.1 µM; under `CCc1cc(CNC(=O)c2cc3nc(C)c([C@H](OC(C)(C)C)C(=O)O)c(-c4cc(F)c5c(c4C)CCCO5)n3n2)ccc1F` [Example 24, (2S)-2-(tert-butoxy)-2-(2-((3-ethyl-4-fluorobenzyl)carbamoyl)-7-(8-fluoro-5-methylchroman-6-yl)-5-methylpyrazolo[1,5-a]pyrimidin-6-yl)acetic acid], below 0.1 µM.

Staying with this assay, now noted: Human immunodeficiency virus 1, MT2, 120 h, read-out: EC50 μM.
In the case of `Cc1cc(CNC(=O)c2cc3nc(C)c(C(OC(C)(C)C)C(=O)O)c(-c4cc(F)c5c(c4C)CCCO5)n3n2)ccc1F` (stereo in doubt) [Example 3, (2S)-2-(tert-Butoxy)-2-(2-((4-fluoro-3-methylbenzyl)carbamoyl)-7-(8-fluoro-5-methylchroman-6-yl)-5-methylpyrazolo[1,5-a]pyrimidin-6-yl)acetic acid], the EC50 is 0.032 µM.
With `Cc1nc2cc(C(=O)NCc3ccc(F)cc3)nn2c(-c2cc(F)c3c(c2C)CCCO3)c1[C@H](OC(C)(C)C)C(=O)O` [Example 1, (2S)-2-(tert-butoxy)-2-(7-(8-fluoro-5-methylchroman-6-yl)-2-((4-fluorobenzyl)carbamoyl)-5-methylpyrazolo[1,5-a]pyrimidin-6-yl)acetic acid], the EC50 turned out to be 0.053 µM.
Still for that read-out and setting: under `Cc1nc2cc(C(=O)NS(=O)(=O)c3ccccc3)nn2c(-c2cc(F)c3c(c2C)CCCO3)c1[C@H](OC(C)(C)C)C(=O)O` [Example 13, (2S)-2-(tert-butoxy)-2-(7-(8-fluoro-5-methylchroman-6-yl)-5-methyl-2-((phenylsulfonyl)carbamoyl)pyrazolo[1,5-a]pyrimidin-6-yl)acetic acid] stands 40 µM; under `Cc1nc2cc(C(=O)NCc3ccc(F)cc3-c3ncnn3C)nn2c(-c2cc(F)c3c(c2C)CCCO3)c1[C@H](OC(C)(C)C)C(=O)O` [Example 18, (2S)-2-(tert-butoxy)-2-(2-((4-fluoro-2-(1-methyl-1H-1,2,4-triazol-5-yl)benzyl)carbamoyl)-7-(8-fluoro-5-methylchroman-6-yl)-5-methylpyrazolo[1,5-a]pyrimidin-6-yl)acetic acid], 0.547 µM.
